Structures are written as SMILES. Where a name gives a salt, the structure may show the parent alone. Read-outs that look alike come from different tables or passages of the source.

What all share (type): cell-based
For series [1], the system named is mutant HIV strain D. Kind of series: microbe, parasite or virus in culture. To be noted: for EC50: Human immunodeficiency virus 1, MT4, read-out: pEC50 Strain D, mutant HIV strain D, MT4 cells (converted); for fold resistance Strain D: FR=EC50 (mutant strain)/EC50 (HIV-1 strain LAI). The method, then:
(§1) HIV- or mock-infected MT4 cells were incubated for five days in the presence of various concentrations of the inhibitor. […] Cell viability is measured by measuring the concentration of MTT, a yellow, water soluble tetrazolium dye that is converted to a purple, water insoluble formazan in the mitochondria of living cells only. Upon solubilization of the resulting formazan crystals with isopropanol, the absorbance of the solution is monitored at 540 nm. The values correlate directly to the number of living cells remaining in the culture at the completion of the five-day incubation. The inhibitory activity of the compound was monitored on the virus-infected cells and was expressed as EC50 and EC90. These values represent the amount of the compound required to protect 50% and 90%, respectively, of the cells from the cytopathogenic effect of the virus. […] The selectivity index (SI) (ratio CC50/EC50) is an indication of the selectivity of the anti-HIV activity of the inhibitor. Wherever results are reported as e.g. pEC50 or pCC50 values, the result is expressed as the negative logarithm of the result expressed as EC50 or CC50 respectively.

The subject of series [2] is mutant HIV strain F. Kind of series: microbe, parasite or virus in culture. The conditions noted are these: for EC50: Human immunodeficiency virus 1, MT4, read-out: pEC50 Strain F, mutant HIV strain F, MT4 cells (converted); for fold resistance Strain F: FR=EC50 (mutant strain)/EC50 (HIV-1 strain LAI). The method, then: as §1
Series [3] relates to mutant HIV strain E. The series can be described thus: microbe, parasite or virus in culture. The conditions noted are these: for EC50: Human immunodeficiency virus 1, MT4, read-out: pEC50 Strain E, mutant HIV strain E, MT4 cells (converted); for fold resistance Strain E: FR=EC50 (mutant strain)/EC50 (HIV-1 strain LAI). The procedure:
as §1

The subject of series [4] is mutant HIV strain B. The series can be described thus: microbe, parasite or virus in culture. To be noted: for EC50: Human immunodeficiency virus 1, MT4, read-out: pEC50 Strain B, mutant HIV strain B, MT4 cells (converted); for fold resistance Strain B: FR=EC50 (mutant strain)/EC50 (HIV-1 strain LAI). The method, then:
as §1

The subject of series [5] is mutant HIV strain C. The series can be described thus: microbe, parasite or virus in culture. The conditions noted are these: for EC50: Human immunodeficiency virus 1, MT4, read-out: pEC50 Strain C, mutant HIV strain C, MT4 cells (converted); for fold resistance Strain C: FR=EC50 (mutant strain)/EC50 (HIV-1 strain LAI). The method, then:
as §1

In series [6] the test system is mutant HIV strain A. Kind of series: microbe, parasite or virus in culture. The conditions noted are these: for EC50: Human immunodeficiency virus 1, MT4, read-out: pEC50 Strain A, mutant HIV strain A, MT4 cells (converted); for fold resistance Strain A: FR=EC50 (mutant strain)/EC50 (HIV-1 strain LAI). The procedure:
as §1

The subject of series [7] is HIV-1 strain LAI. The series can be described thus: Cellular anti-HIV assay (MT4/MTT), wild type. The conditions noted are these: MT4 cells, read-out: WT (pEC50) (converted). The procedure:
as §1, with “The compounds of the present invention were examined for anti-viral activity in a cellular assay. […] The cellular assay was performed according to the following procedure. HIV-” for “HIV-”

A short description of series [8]: Toxicity on mock-infected cells (MTT). The conditions noted are these: human. The procedure: HIV- or mock-infected MT4 cells were incubated for five days in the presence of various concentrations of the inhibitor. At the end of the incubation period, the replicating virus in the control cultures has killed all HIV-infected cells in the absence of any inhibitor. Cell viability is measured by measuring the concentration of MTT, a yellow, water soluble tetrazolium dye that is converted to a purple, water insoluble formazan in the mitochondria of living cells only. Upon solubilization of the resulting formazan crystals with isopropanol, the absorbance of the solution is monitored at 540 nm. The values correlate directly to the number of living cells remaining in the culture at the completion of the five-day incubation. The inhibitory activity of the compound was monitored on the virus-infected cells and was expressed as EC50 and EC90. These values represent the amount of the compound required to protect 50% and 90%, respectively, of the cells from the cytopathogenic effect of the virus. […] The selectivity index (SI) (ratio CC50/EC50) is an indication of the selectivity of the anti-HIV activity of the inhibitor. Wherever results are reported as e.g. pEC50 or pCC50 values, the result is expressed as the negative logarithm of the result expressed as EC50 or CC50 respectively.

Where [9] appears, read: Human immunodeficiency virus 1, wild type HIV-1 strain LAI.
Where [10] appears, read: Human immunodeficiency virus 1, MT4, wild type HIV-1 strain LAI.

A word on the CC50: it is the concentration at which the toxic effect on the cells reaches its halfway point. As for `Cc1c(F)cccc1C(=O)N[C@@H](Cc1ccccc1)[C@H](O)CN(CC(C)C)S(=O)(=O)c1ccc2nc(N)sc2c1` [Compound 16, N-{(1S,2R)-3-[(2-amino-benzothiazole-6-sulfonyl)-isobutyl-amino]-1-benzyl-2-hydroxypropyl}-3-fluoro-2-methyl-benzamide], the EC50 in series [1], in series [2], in series [3], in series [4], in series [5] and in series [6] was greater than 100000 nM throughout. Also, the EC50 in series [7] (setting [9]) is 1410 nM. This compound also had a 50% cytotoxic concentration (CC50) at 5 days in series [8] of 11200 nM.
As for `Cc1ccccc1C(=O)N[C@@H](Cc1ccccc1)[C@H](O)CN(CC(C)C)S(=O)(=O)c1ccc2nc(N)sc2c1` [Compound 14, N-{(1S,2R)-3-[(2-amino-benzothiazole-6-sulfonyl)-isobutyl-amino]-1-benzyl-2-hydroxypropyl}-2-methyl-benzamide], the “fold resistance Strain D” value in series [1] is given as 10.5. The EC50 in series [1] was 39.8 nM; in series [3], 30.2 nM; in series [4] it was 26.9 nM; in series [5], 178 nM; in series [6], 891 nM; in series [7] (setting [9]) it was 3.8 nM. In series [3], the “fold resistance Strain E” value was 7.9. Moreover, the “fold resistance Strain B” value in series [4] was determined as 7.1. Besides, in series [5], the “fold resistance Strain C” value amounted to 46.8. Moreover, the “fold resistance Strain A” value in series [6] is on record as 234.4. For the same compound, the midpoint of cytotoxicity in series [8], the CC50 at 5 days, lay at 46800 nM.
Consider `CC(C)CN(C[C@@H](O)[C@H](Cc1ccccc1)NC(=O)OC1CCOC1)S(=O)(=O)c1ccc2nc(N)sc2c1` (stereo partly drawn) [Compound 12, {(1S,2R)-3-[(2-amino-benzothiazole-6-sulfonyl)-isobutyl-amino]-1-benzyl-2-hydroxypropyl}-carbamic acid tetrahydro-furan-3-yl ester], for which, in series [1], the “fold resistance Strain D” value was determined as 6.2 and the EC50 is 26.3 nM. Besides, in series [3], the “fold resistance Strain E” value is 1.8 and the EC50 was 7.76 nM. Also, in series [4], the “fold resistance Strain B” value is listed as 1.8 and the EC50 is 7.59 nM. Moreover, in series [5], the “fold resistance Strain C” value came to 44.7 and the EC50 is 191 nM. Moreover, in series [6], the “fold resistance Strain A” value turned out to be 53.7 and the EC50 was 229 nM. For the same compound, the EC50 in series [7] (setting [9]) was 4.27 nM. Also, the cytotoxic concentration (CC50) at 5 days in series [8] was greater than 100000 nM.
Take `CNc1nc2ccc(S(=O)(=O)N(CC(C)C)C[C@@H](O)[C@H](Cc3ccccc3)NC(=O)COc3c(C)cc(N)cc3C)cc2s1` [Compound 26, 2-(4-amino-2,6-dimethyl-phenoxy)-N-{(1S,2R)-1-benzyl-2-hydroxy-3-[isobutyl-(2-methylamino-benzothiazole-6-sulfonyl)-amino]-propyl}-acetamide]: in series [1], the “fold resistance Strain D” value worked out at 3.1. Moreover, the EC50 in series [1] is 8.32 nM; in series [2], 56.2 nM; in series [3] it was 6.17 nM; in series [4], 3.98 nM; in series [5] it was 7.24 nM; in series [6], 30.2 nM. Moreover, the EC50 in series [7] (setting [9]) was 2.69 nM. Besides, in series [2], the “fold resistance Strain F” value worked out at 20.9. Further, the “fold resistance Strain E” value in series [3] is on record as 2.3. Also, the “fold resistance Strain B” value in series [4] stood at 1.5. In series [5], the “fold resistance Strain C” value is reported as 2.7. In addition, in series [6], the “fold resistance Strain A” value came to 11.2.
As to `CNc1nc2ccc(S(=O)(=O)N(CC(C)C)C[C@@H](O)[C@H](Cc3ccccc3)NC(=O)OCc3cncs3)cc2s1.O=C(O)C(F)(F)F` [Compound 19, {(1S,2R)-1-benzyl-2-hydroxy-3-[isobutyl-(2-methylamino-benzothiazole-6-sulfonyl)-amino]-propyl}-carbamic acid thiazol-5-ylmethyl ester trifluoroacetate], in series [1] (mutant HIV strain D, MT4 cells), the “pEC50 Strain D” value is 7.43. In addition, in series [2] (mutant HIV strain F, MT4 cells), the “pEC50 Strain F” value amounted to 6.80. Further, the “pEC50 Strain E” value in series [3] (mutant HIV strain E, MT4 cells) is 7.90. Further, the “pEC50 Strain B” value in series [4] (mutant HIV strain B, MT4 cells) is 7.80. In addition, in series [5] (mutant HIV strain C, MT4 cells), the “pEC50 Strain C” value stood at 7.88. The “pEC50 Strain A” value in series [6] (mutant HIV strain A, MT4 cells) is recorded as 7.36. Also, in series [7] (setting [10]), the EC50 is 3.09 nM.
Regarding `CC(C)CN(C[C@@H](O)[C@H](Cc1ccccc1)NC(=O)OC1COC2OCCC12)S(=O)(=O)c1ccc2nc(N(C)C)sc2c1` (stereo partly drawn) [Compound 6, {(1S,2R)-1-benzyl-3-[(2-dimethylamino-benzothiazole-6-sulfonyl)-isobutyl-amino]-2-hydroxy-propyl}-carbamic acid hexahydro-furo[2,3-b]furan-3-yl ester], in series [1], the “fold resistance Strain D” value stood at 27.5 and the EC50 was 110 nM. Also, in series [2], the “fold resistance Strain F” value was 177.8 and the EC50 is 708 nM. In addition, in series [4], the “fold resistance Strain B” value is 32.4 and the EC50 is 129 nM. Further, in series [5], the “fold resistance Strain C” value is 8.5 and the EC50 was 33.9 nM. For the same compound, in series [6], the “fold resistance Strain A” value came to 50.1 and the EC50 was 200 nM. The EC50 in series [7] (setting [9]) was 3.98 nM. In addition, in series [8], the half-maximal cytotoxic concentration (CC50) at 5 days is greater than 100000 nM.
As to `CNc1nc2ccc(S(=O)(=O)N(CC(C)C)C[C@@H](O)[C@H](Cc3ccccc3)NC(=O)c3cccc(O)c3C)cc2s1` [Compound 23, N-{(1S,2R)-1-benzyl-2-hydroxy-3-[isobutyl-(2-methylamino-benzothiazole-6-sulfonyl)-amino]-propyl}-3-hydroxy-2-methyl-benzamide trifluoroacetate], the EC50 in series [1] was 21.4 nM; in series [3], 7.24 nM; in series [4], 9.55 nM; in series [5], 8.71 nM; in series [6] it was 288 nM; in series [7] (setting [10]), 4.57 nM. The same compound showed a CC50 at 5 days in series [8] of 69200 nM.
Consider `CC(C)CN(C[C@@H](O)[C@H](Cc1ccccc1)NC(=O)OCc1cccnc1)S(=O)(=O)c1ccc2nc(N)sc2c1` [Compound 9, {(1S,2R)-3-[(2-amino-benzothiazole-6-sulfonyl)-isobutyl-amino]-1-benzyl-2-hydroxypropyl}-carbamic acid pyridin-3-ylmethyl ester], for which, in series [1], the “fold resistance Strain D” value is 8.5 and the EC50 was 41.7 nM. Further, in series [3], the “fold resistance Strain E” value turned out to be 4.9 and the EC50 was 24 nM. In addition, in series [4], the “fold resistance Strain B” value turned out to be 1.1 and the EC50 was 5.62 nM. Besides, in series [5], the “fold resistance Strain C” value is 1000.0 and the EC50 is 4900 nM. Further, in series [6], the “fold resistance Strain A” value is recorded as 53.7 and the EC50 is 263 nM. In addition, the EC50 in series [7] (setting [9]) was 4.9 nM. Also, in series [8], the midpoint of cytotoxicity, the CC50 at 5 days, lay at 51300 nM.

(Values after patent US20050267156A1, “Broadspectrum 2-amino-benzothiazole sulfonamide hiv protease inhibitors” (Tibotec Pharmaceuticals Ltd., priority 2002, published 2005).)
